Drawing on ChEMBL document CHEMBL1201862, “PubChem BioAssay data set” (2004), this text covers AC50, IC50 and EC50 for six compounds.

Assay [1] has as its target T1, Histone-lysine N-methyltransferase NSD2 (Homo sapiens, UniProt O96028).
T1 sequence (O96028 whole entry): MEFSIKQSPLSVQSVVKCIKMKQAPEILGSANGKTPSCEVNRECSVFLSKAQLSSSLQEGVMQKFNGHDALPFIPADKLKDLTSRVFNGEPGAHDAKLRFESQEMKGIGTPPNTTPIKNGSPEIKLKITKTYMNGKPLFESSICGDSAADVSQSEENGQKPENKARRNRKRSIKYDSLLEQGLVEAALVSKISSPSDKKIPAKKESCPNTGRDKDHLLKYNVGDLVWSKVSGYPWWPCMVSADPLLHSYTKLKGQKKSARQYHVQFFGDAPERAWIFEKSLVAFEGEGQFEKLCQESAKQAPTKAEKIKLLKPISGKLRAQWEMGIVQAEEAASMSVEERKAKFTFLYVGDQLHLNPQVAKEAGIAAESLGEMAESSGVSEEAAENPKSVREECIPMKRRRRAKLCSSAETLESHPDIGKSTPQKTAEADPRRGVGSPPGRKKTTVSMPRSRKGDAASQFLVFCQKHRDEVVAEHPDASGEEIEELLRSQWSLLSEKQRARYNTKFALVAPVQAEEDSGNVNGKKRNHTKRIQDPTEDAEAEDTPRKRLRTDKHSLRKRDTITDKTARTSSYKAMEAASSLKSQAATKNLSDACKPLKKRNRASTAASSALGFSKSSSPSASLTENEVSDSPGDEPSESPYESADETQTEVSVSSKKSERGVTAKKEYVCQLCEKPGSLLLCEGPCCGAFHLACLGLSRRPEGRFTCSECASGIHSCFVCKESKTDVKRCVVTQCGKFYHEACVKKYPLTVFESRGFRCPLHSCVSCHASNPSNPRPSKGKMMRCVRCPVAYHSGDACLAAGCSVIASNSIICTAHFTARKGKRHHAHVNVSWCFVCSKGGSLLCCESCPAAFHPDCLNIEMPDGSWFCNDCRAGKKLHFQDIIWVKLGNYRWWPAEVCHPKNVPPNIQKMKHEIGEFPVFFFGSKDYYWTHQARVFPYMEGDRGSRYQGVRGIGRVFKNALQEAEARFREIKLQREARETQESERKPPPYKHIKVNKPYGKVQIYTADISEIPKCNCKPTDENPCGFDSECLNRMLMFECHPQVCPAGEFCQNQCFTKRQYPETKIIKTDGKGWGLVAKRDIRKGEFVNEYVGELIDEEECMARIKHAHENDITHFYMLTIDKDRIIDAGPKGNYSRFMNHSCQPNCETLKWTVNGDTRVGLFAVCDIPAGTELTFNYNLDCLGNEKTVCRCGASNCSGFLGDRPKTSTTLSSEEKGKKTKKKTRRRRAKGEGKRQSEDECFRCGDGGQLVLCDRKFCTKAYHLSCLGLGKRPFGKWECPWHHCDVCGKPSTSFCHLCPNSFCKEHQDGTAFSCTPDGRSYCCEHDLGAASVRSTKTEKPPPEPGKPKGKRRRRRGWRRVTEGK
Format: biochemical.

For assay [2], the target named is T2, Polyadenylate-binding protein 1 (Homo sapiens, UniProt P11940). The assay can be described thus: MLLE domain peptide-binding blockers, IC50 – biochemical, fluorescence polarization, FITC-PAM2 peptide, dose response (AID 602259). It counts as functional. The note with it: read-out: IC50_Mean.
Assay [3] has as its target T3, Tyrosine-protein phosphatase non-receptor type 11 (Homo sapiens, UniProt Q06124).
T3 sequence (Q06124 whole entry): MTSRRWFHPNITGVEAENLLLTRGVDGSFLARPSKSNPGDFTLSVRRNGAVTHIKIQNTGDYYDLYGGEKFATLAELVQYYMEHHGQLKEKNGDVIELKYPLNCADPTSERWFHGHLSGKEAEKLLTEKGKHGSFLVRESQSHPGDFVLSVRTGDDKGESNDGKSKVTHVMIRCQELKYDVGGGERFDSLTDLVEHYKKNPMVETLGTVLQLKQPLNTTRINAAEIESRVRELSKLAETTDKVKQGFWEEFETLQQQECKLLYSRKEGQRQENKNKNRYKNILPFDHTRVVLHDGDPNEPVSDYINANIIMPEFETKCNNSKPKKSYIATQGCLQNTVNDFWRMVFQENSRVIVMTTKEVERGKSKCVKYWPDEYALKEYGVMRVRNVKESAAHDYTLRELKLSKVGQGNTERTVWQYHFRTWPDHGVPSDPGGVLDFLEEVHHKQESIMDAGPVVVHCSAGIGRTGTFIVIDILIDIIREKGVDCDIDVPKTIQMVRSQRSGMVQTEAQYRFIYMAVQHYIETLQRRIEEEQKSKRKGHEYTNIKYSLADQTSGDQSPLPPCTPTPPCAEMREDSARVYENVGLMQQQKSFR
The assay can be described thus: PTPN11 enzyme inhibitors – biochemical, selectivity assay for STEP inhibitor project, dose response (AID 602367). The note with it: read-out: IC50_Mean. Format: functional.

In assay [4] the target is Dual specificity protein phosphatase 3 (Homo sapiens, UniProt P51452). Description: VHR phosphatase inhibition, dose response, selectivity assay for STEP inhibitor project, biochemical (AID 602374). Format: functional. The note with it: read-out: IC50_Mean.
Assay [5] concerns the target T2, Polyadenylate-binding protein 1. Description: MLLE binding blockers, Cy5 peptide tracer – biochemical, fluorescence polarization, Cy5-PAM2 peptide, secondary, miRNA deadenylation inhibitor project, dose response (AID 602260). It counts as functional. The note with it: read-out: IC50_Mean.
Assay [6] deals with T4, Tyrosine-protein phosphatase non-receptor type 5 (Homo sapiens, UniProt P54829).
T4 sequence (P54829 whole entry): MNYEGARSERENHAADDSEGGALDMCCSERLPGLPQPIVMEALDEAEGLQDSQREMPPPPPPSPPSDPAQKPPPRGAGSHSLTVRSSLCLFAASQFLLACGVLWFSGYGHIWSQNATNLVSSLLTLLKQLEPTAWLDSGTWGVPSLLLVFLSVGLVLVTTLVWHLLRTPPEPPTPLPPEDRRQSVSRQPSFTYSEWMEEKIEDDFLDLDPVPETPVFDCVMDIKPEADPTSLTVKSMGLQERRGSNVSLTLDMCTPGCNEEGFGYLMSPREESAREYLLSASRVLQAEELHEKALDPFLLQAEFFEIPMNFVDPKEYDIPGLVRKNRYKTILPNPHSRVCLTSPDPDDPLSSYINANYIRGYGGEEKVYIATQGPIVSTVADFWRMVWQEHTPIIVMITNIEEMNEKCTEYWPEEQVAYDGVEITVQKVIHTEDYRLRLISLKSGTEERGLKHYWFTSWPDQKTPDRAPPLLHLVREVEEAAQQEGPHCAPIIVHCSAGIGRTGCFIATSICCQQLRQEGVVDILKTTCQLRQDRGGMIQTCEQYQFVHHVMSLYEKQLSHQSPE
Description: PTPN5 enzyme inhibition – biochemical, fluorescence intensity, uHTS hits, confirmation (AID 602372). Format: functional. The note with it: read-out: IC50_Mean.

Assay [7] concerns the target T5, Caspase-6 (Homo sapiens, UniProt P55212).
T5 sequence (P55212 whole entry): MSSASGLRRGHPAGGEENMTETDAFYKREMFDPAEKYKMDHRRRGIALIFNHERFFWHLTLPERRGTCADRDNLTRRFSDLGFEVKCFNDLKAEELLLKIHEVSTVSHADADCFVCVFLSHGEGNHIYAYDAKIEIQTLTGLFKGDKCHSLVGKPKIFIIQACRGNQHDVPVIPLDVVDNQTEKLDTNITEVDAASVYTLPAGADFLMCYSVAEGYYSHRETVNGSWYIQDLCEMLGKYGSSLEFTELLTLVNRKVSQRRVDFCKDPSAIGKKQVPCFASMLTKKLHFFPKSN
Description: inhibition of CASP6 peptide cleavage – biochemical, VEID-R110 fluorescence, cherry-pick, dose response (AID 720632).

Assay [8] deals with HEK293. Description: optical interference in Abeta FP readout, dose response, artefact control for IDE activator project, biochemical, fluorescence polarization (AID 588442). It counts as functional, cell-based. The note with it: Homo sapiens. (In general: In fluorescence polarisation assays a small probe gives low polarisation when free and higher when bound to something large.)

Assay [9] concerns the target T6, Insulin-degrading enzyme (Homo sapiens, UniProt P14735).
T6 sequence (P14735 whole entry): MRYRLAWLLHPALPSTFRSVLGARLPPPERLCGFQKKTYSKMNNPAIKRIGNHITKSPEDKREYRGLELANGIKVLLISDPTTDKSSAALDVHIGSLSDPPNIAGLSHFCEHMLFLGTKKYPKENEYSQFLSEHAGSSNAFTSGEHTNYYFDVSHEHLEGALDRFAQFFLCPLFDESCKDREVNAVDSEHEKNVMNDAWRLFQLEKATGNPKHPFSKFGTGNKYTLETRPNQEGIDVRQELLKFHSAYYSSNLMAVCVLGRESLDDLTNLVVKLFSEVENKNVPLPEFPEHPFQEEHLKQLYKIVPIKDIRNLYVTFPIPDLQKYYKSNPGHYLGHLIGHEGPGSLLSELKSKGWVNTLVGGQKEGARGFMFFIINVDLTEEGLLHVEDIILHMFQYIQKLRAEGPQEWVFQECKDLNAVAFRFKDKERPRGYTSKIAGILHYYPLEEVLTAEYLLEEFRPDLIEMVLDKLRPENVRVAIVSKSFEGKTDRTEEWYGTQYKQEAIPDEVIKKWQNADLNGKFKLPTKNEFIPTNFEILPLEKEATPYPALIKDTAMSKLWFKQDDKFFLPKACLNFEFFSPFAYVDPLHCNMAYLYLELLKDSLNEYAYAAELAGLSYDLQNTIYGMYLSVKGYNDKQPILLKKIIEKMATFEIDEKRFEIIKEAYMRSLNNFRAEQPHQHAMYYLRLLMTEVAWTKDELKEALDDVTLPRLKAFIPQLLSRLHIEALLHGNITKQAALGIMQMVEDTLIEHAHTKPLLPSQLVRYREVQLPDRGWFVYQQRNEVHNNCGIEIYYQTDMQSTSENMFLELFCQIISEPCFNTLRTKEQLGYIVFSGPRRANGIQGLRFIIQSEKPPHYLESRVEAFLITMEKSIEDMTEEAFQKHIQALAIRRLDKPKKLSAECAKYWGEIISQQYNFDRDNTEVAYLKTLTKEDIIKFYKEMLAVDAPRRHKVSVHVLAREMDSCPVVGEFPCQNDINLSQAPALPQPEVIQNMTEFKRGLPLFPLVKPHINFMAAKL
The assay can be described thus: cellular IDE activation of Abeta substrate cleavage – fluorescence polarization, HEK cells, dose response (AID 588439). It counts as functional, cell-based.

In assay [10] the target is T6, Insulin-degrading enzyme. Description: recombinant IDE activation, cell-free – biochemical, fluorescence polarization, counter-screen for IDE activator project, dose response (AID 588681).
In assay [11] the test system is HEK293. Description: membrane integrity loss in HEK cells – cell-based, fluorescence, cytotoxicity control for IDE activator project, dose response (AID 588440).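 Note: cytotoxicity by LDH release measuring loss of membrane integrity.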 Format: functional. As to conditions: Homo sapiens.
Assay [12] is described as follows: intracellular Trypanosoma cruzi inhibitors in host cells – cell-based, plate reader, cherry-pick samples, set 3, dose response (AID 651818).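 Note: compounds incubated with infected cells for about four days.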 Format: functional.

Calls of active or inactive are those of the source. Some results are limits rather than exact numbers.

Dual specificity protein phosphatase 3, sequence (P51452 whole entry): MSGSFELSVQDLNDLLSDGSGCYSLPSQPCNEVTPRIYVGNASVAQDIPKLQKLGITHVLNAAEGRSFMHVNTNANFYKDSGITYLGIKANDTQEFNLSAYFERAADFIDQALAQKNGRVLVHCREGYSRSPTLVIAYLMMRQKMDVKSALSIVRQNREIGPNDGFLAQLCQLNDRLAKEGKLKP
T2 sequence (P11940 whole entry, the tested form may be a part): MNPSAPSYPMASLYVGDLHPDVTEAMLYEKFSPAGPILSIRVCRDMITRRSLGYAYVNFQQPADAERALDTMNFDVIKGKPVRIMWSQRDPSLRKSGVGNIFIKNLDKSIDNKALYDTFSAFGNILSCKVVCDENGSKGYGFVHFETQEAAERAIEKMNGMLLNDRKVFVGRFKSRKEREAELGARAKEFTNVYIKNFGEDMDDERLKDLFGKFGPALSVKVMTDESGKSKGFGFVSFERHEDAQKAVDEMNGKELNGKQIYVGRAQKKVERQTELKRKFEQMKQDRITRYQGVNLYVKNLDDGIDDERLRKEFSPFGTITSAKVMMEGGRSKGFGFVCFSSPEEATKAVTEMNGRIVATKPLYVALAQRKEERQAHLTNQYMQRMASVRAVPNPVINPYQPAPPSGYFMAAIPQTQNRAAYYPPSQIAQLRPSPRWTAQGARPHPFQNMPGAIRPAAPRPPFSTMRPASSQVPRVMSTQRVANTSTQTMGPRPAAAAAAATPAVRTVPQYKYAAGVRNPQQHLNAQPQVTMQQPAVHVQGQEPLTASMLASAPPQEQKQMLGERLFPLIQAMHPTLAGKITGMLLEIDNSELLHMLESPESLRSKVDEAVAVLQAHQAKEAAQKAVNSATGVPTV

Take `Nc1ccc2c(O)cc(S(=O)(=O)O)cc2c1`: the figures for the AC50 in assay [1] and in [7] were 6.49 µM (active) and 2.15 µM (active), respectively. The IC50 in assay [2] was > 66 µM (inactive); in assay [3], 1.04 µM (active); in assay [4], 3.43 µM (active); in assay [5], > 66 µM (inactive); in assay [6] it was 33.4 µM (inactive).

For `CC(=O)Nc1ccc(S(=O)(=O)NCCc2ccccn2)cc1`, the results for the EC50 in [8], in assay [9] and in [10] were > 56 µM (inactive), > 54.7 µM (inactive) and > 54.7 µM (inactive), respectively. Also, the IC50 in assay [11] was > 89.2 µM (inactive).

Turning to `C[C@H]1CN([C@@H](C)CO)C(=O)Cc2cc(NC(=O)Nc3cccc4ccccc34)ccc2O[C@@H]1CN(C)CC1CCCCC1`, the AC50 – broadly, the midpoint of the concentration-response curve, whichever way the signal moves – in [12] is 4.35 µM (active).

For `C[C@H](CO)N1C[C@H](C)[C@H](CN(C)S(=O)(=O)c2ccc(F)cc2)Oc2ccc(NS(=O)(=O)c3ccc(F)cc3)cc2C1=O`, in assay [12], the concentration at half-maximal activity (AC50) was 7.7 µM (active).

`C[C@@H]1CN([C@H](C)CO)C(=O)c2cccc(NC(=O)c3nc4ccccc4s3)c2O[C@H]1CN(C)S(=O)(=O)c1ccc(Cl)cc1`: the half-maximal activity concentration (AC50) in assay [12] is 0.964 µM (active).

Regarding `Cc1ccc(C(=S)N2CCN(Cc3ccccc3)CC2)s1`, the IC50 was 3.1 µM (active) in assay [3], 0.997 µM (active) in assay [4] and 16.5 µM (active) in assay [6].
